From ChEMBL document CHEMBL1130625, “Synthesis and antibacterial activity of novel 7-(3-substituted-3 or 4-trifluoromethyl-1-pyrrolidinyl)-8-methoxyfluoroquinolones” (1998)
Converted amounts (≈) assume the structure as drawn.

How the values were obtained:
Staphylococcus aureus [1] = assay: Compound was tested for antibacterial activity against gram positive Staphylococcus aureus FDA 209P JC-1; format: functional; details: Staphylococcus aureus; read-out: MIC
Klebsiella oxytoca = assay: Compound was tested for antibacterial activity against gram negative Klebsiella oxytoca GN 10650; format: functional; details: Klebsiella oxytoca; read-out: MIC
Staphylococcus aureus [2] = assay: Compound was tested for antibacterial activity against gram positive Staphylococcus aureus KP-90-3; format: functional; details: Staphylococcus aureus; read-out: MIC
Pseudomonas aeruginosa [3] = assay: Compound was tested for antibacterial activity against gram negative Pseudomonas aeruginosa KP-254; format: functional; details: Pseudomonas aeruginosa; read-out: MIC
Klebsiella pneumoniae [4] = assay: Compound was tested for antibacterial activity against gram negative Klebsiella pneumoniae No.42; format: functional; details: Klebsiella pneumoniae; read-out: MIC
Proteus vulgaris [5] = assay: Compound was tested for antibacterial activity against gram negative Proteus vulgaris No.33; format: functional; details: Proteus vulgaris; read-out: MIC
Enterococcus faecalis = assay: Compound was tested for antibacterial activity against gram positive Enterococcus faecalis 1373; format: functional; details: Enterococcus faecalis; read-out: MIC
Escherichia coli [6] = assay: Compound was tested for antibacterial activity against gram negative Escherichia coli CSH2/RK1; format: functional; details: Escherichia coli; read-out: MIC
Streptococcus pyogenes = assay: Compound was tested for antibacterial activity against gram positive Streptococcus pyogenes cook; details: Streptococcus pyogenes; read-out: MIC
[7] = system: Acinetobacter calcoaceticus; assay: Compound was tested for antibacterial activity against gram negative Acinetobacter calcoaceticus No.4; format: functional; details: Acinetobacter calcoaceticus; read-out: MIC
Pseudomonas aeruginosa [8] = assay: Compound was tested for antibacterial activity against gram negative Pseudomonas aeruginosa K-13; format: functional; details: Pseudomonas aeruginosa; read-out: MIC
Burkholderia cepacia = assay: Compound was tested for antibacterial activity against gram negative Burkholderia cepacia 23; format: functional; details: Burkholderia cepacia; read-out: MIC
Enterobacter cloacae = assay: Compound was tested for antibacterial activity against gram negative Enterobacter cloacae Nek39; format: functional; details: Enterobacter cloacae; read-out: MIC
Staphylococcus aureus [9] = assay: Compound was tested for antibacterial activity against gram positive Staphylococcus aureus smith; format: functional
Citrobacter freundii [10] = assay: Compound was tested for antibacterial activity against gram negative Citrobacter freundii KP-29; format: functional; details: Citrobacter freundii; read-out: MIC
Escherichia coli [11] = assay: Compound was tested for antibacterial activity against gram negative Escherichia coli ML4707; format: functional; details: Escherichia coli; read-out: MIC
Pseudomonas aeruginosa [12] = assay: Compound was tested for antibacterial activity against gram negative Pseudomonas aeruginosa AK109; format: functional; details: Pseudomonas aeruginosa; read-out: MIC
Proteus vulgaris [13] = assay: Compound was tested for antibacterial activity against gram negative Proteus vulgaris KS-134; format: functional; details: Proteus vulgaris; read-out: MIC
Escherichia coli [14] = assay: Compound was tested for antibacterial activity against gram negative Escherichia coli CSH2/RE45; format: functional; details: Escherichia coli; read-out: MIC
Citrobacter freundii [15] = assay: Compound was tested for antibacterial activity against gram negative Citrobacter freundii No.7; format: functional; details: Citrobacter freundii; read-out: MIC
Pseudomonas aeruginosa [16] = assay: Compound was tested for antibacterial activity against gram negative Pseudomonas aeruginosa PAO1; format: functional; details: Pseudomonas aeruginosa; read-out: MIC
Proteus mirabilis = assay: Compound was tested for antibacterial activity against gram negative Proteus mirabilis JY-10; format: functional; details: Proteus mirabilis; read-out: MIC
Serratia marcescens = assay: Compound was tested for antibacterial activity against gram negative Serratia marcescens No.16-2; format: functional; details: Serratia marcescens; read-out: MIC
Staphylococcus aureus [17] = assay: Compound was tested for antibacterial activity against gram positive Staphylococcus aureus JS-1; format: functional
Escherichia coli [18] = assay: Compound was tested for antibacterial activity against gram negative Escherichia coli NIHJ JC-2; format: functional
Klebsiella pneumoniae [19] = assay: Compound was tested for antibacterial activity against gram negative Klebsiella pneumoniae KC-1; format: functional; details: Klebsiella pneumoniae; read-out: MIC
[20] = Staphylococcus aureus, read-out: MIC
[21] = Escherichia coli, read-out: MIC

| Compound | MIC (Staphylococcus aureus [1]) [µg/mL] | MIC (Klebsiella oxytoca) [µg/mL] | MIC (Staphylococcus aureus [2]) [µg/mL] | MIC (Pseudomonas aeruginosa [3]) [µg/mL] | MIC (Klebsiella pneumoniae [4]) [µg/mL] | MIC (Proteus vulgaris [5]) [µg/mL] | MIC (Enterococcus faecalis) [µg/mL] | MIC (Escherichia coli [6]) [µg/mL] | MIC (Streptococcus pyogenes) [µg/mL] | MIC [7] [µg/mL] | MIC (Pseudomonas aeruginosa [8]) [µg/mL] | MIC (Burkholderia cepacia) [µg/mL] | MIC (Enterobacter cloacae) [µg/mL] | MIC (Staphylococcus aureus [9]) [µg/mL] | MIC (Citrobacter freundii [10]) [µg/mL] | MIC (Escherichia coli [11]) [µg/mL] | MIC (Pseudomonas aeruginosa [12]) [µg/mL] | MIC (Proteus vulgaris [13]) [µg/mL] | MIC (Escherichia coli [14]) [µg/mL] | MIC (Citrobacter freundii [15]) [µg/mL] | further results |
| --- | --- | --- | --- | --- | --- | --- | --- | --- | --- | --- | --- | --- | --- | --- | --- | --- | --- | --- | --- | --- | --- |
| COc1c(N2C[C@@H](CN)[C@H](C(F)(F)F)C2)c(F)cc2c(=O)c(C(=O)O)cn(C3CC3)c12.Cl (racemic) | 0.025 | 0.1 | 0.39 | 100 | 0.2 | 0.1 | 0.05 | 0.78 | 0.025 | 0.1 | 12.5 | 1.56 | 0.39 | ≤ 0.006 | 25 | 0.05 | 1.56 | 50 | 0.78 | 0.78 | MIC (Pseudomonas aeruginosa [16]): 1.56 µg/mL; MIC (Proteus mirabilis): 0.1 µg/mL; MIC (Serratia marcescens): 0.39 µg/mL; MIC (Staphylococcus aureus [17]): 0.013 µg/mL; MIC (Escherichia coli [18]): 0.1 µg/mL; MIC (Klebsiella pneumoniae [19]): 0.05 µg/mL |
| COc1c(N2C[C@H](CN)[C@H](C(F)(F)F)C2)c(F)cc2c(=O)c(C(=O)O)cn(C3CC3)c12.Cl | 0.025 | 0.05 | 0.2 | 50 | 0.1 | 0.05 | 0.05 | 0.2 | ≤ 0.006 | 0.1 | 3.13 | 1.56 | 0.39 | ≤ 0.006 | 6.25 | 0.025 | 0.78 | 25 | 0.2 | 0.78 | MIC (Pseudomonas aeruginosa [16]): 0.78 µg/mL; MIC (Proteus mirabilis): 0.025 µg/mL; MIC (Serratia marcescens): 0.78 µg/mL; MIC (Staphylococcus aureus [17]; [20]): ≤ 0.006 µg/mL; MIC (Escherichia coli [18]; [21]): 0.05 µg/mL; MIC (Klebsiella pneumoniae [19]): 0.05 µg/mL |
| COc1c(N2C[C@H](CN)[C@@H](C(F)(F)F)C2)c(F)cc2c(=O)c(C(=O)O)cn(C3CC3)c12.Cl | 0.05 | 0.2 | 0.78 | > 100 | 0.39 | 0.39 | 0.05 | 3.13 | 0.025 | 0.2 | 50 | 1.56 | 1.56 | ≤ 0.006 | 50 | 0.05 | 6.25 | 50 | 1.56 | 1.56 | MIC (Pseudomonas aeruginosa [16]): 6.25 µg/mL; MIC (Proteus mirabilis): 0.2 µg/mL; MIC (Serratia marcescens): 0.78 µg/mL; MIC (Staphylococcus aureus [17]; [20]): 0.013 µg/mL; MIC (Escherichia coli [18]; [21]): 0.2 µg/mL; MIC (Klebsiella pneumoniae [19]): 0.1 µg/mL |
| COc1c(N2CC[C@@](N)(C(F)(F)F)C2)c(F)cc2c(=O)c(C(=O)O)cn(C3CC3)c12.Cl | 0.05 | 0.39 | 1.56 | > 100 | 0.39 | 0.39 | 0.2 | 3.13 | 0.1 | 0.2 | 25 | 1.56 | 1.56 | ≤ 0.006 | 100 | ≤ 0.006 | 6.25 | 100 | 3.13 | 3.13 | MIC (Pseudomonas aeruginosa [16]): 6.25 µg/mL; MIC (Proteus mirabilis): 0.2 µg/mL; MIC (Serratia marcescens): 3.13 µg/mL; MIC (Staphylococcus aureus [17]; [20]): 0.025 µg/mL; MIC (Escherichia coli [18]; [21]): 0.39 µg/mL; MIC (Klebsiella pneumoniae [19]): 0.2 µg/mL |
| CC1COc2c(N3CCN(C)CC3)c(F)cc3c(=O)c(C(=O)O)cn1c23 (stereo not given) [OFLOXACIN] | 0.39 (≈ 1.08 µM) | 0.1 (≈ 0.277 µM) | 25 (≈ 69.2 µM) | > 100 | 0.2 (≈ 0.553 µM) | 0.05 (≈ 0.138 µM) | 1.56 (≈ 4.32 µM) | 0.78 (≈ 2.16 µM) | 0.78 (≈ 2.16 µM) | 0.78 (≈ 2.16 µM) | 12.5 (≈ 34.6 µM) | 3.13 (≈ 8.66 µM) | 0.39 (≈ 1.08 µM) | 0.2 (≈ 0.553 µM) | 50 (≈ 138 µM) | 0.025 (≈ 0.0692 µM) | 1.56 (≈ 4.32 µM) | 50 (≈ 138 µM) | 0.78 (≈ 2.16 µM) | 0.39 (≈ 1.08 µM) | MIC (Pseudomonas aeruginosa [16]): 1.56 µg/mL (≈ 4.32 µM); MIC (Proteus mirabilis): 0.05 µg/mL (≈ 0.138 µM); MIC (Serratia marcescens): 0.78 µg/mL (≈ 2.16 µM); MIC (Staphylococcus aureus [17]; [20]): 0.39 µg/mL (≈ 1.08 µM); MIC (Escherichia coli [18]; [21]): 0.1 µg/mL (≈ 0.277 µM); MIC (Klebsiella pneumoniae [19]): 0.05 µg/mL (≈ 0.138 µM) |
